These results are taken from patent US9447157B2, “Nitration shielding peptides and methods of use thereof” (Augusta University Research Institute, Inc., priority 2013, dated 2016).

For assay [1], the target named is T1, PKG-1α (Homo sapiens, UniProt Q13976).
T1 construct: transfected with an expression plasmid containing a full length WT-PKG-1α cDNA; made in house; host or cells: HEK-293T (methods); the results paragraph b527 says PASMC
T1 sequence (Q13976 2-671): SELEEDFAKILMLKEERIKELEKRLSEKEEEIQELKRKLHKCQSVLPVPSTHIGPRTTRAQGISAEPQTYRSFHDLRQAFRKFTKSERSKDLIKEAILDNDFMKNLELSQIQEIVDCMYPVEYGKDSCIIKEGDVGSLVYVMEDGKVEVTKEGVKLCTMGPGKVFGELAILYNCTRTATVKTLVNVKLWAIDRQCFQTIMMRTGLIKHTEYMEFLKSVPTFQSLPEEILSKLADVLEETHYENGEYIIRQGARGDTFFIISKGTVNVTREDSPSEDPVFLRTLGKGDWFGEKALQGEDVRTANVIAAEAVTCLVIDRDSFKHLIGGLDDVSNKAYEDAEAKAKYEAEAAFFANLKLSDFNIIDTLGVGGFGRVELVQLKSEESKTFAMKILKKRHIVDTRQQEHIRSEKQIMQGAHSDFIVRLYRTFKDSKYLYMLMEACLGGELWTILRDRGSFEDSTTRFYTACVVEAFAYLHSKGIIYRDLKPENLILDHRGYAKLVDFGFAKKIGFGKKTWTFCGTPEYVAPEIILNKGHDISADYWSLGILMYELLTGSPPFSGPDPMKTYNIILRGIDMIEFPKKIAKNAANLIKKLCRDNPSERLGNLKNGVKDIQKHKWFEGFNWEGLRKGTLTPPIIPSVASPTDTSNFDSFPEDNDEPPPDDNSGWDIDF
The assay can be described thus: PKG protein levels and PKG activity in transfected PASMC. The assay is classed as cell-based. As to conditions: PASMC transfected with WT-PKG-1α, SIN-1 500 μM 48 h. On the procedure:
Therefore, the effect of these events were investigated in PASMC transiently transfected with expression plasmids containing WT- and Y247F-PKG-1α. The effect of nitration on pulmonary arterial smooth muscle cell (PASMC) growth and metabolism was determined. PASMC were transiently transfected with expression plasmids containing WT-PKG-1α, Y247F-PKG-1α or pDEST40 (as a control) for 20 h. Cells were then exposed or not to SIN-1 (500 μM, 48 h) and the effect on PKG protein levels (FIG. 17A) and activity determined (FIG. 17B).
Cells were prepared as previously described (Sud, N., et al., American Journal of Physiology 293, L1444-1453 (2007); Sharma, S., et al., American Journal of Physiology 294, L46-56 (2008)). Briefly, the cellular protein extracts were prepared by homogenizing the cells in lysis buffer (50 mM Tris-HCl, pH 7.6, 0.5% Triton X-100, and 20% glycerol) containing Halt protease inhibitor cocktail (Pierce, Rockford, Ill.). The extracts were then clarified by centrifugation (20,000 g for 20 min at 4° C.). […] Reactive bands were visualized using chemi-luminescence (Pierce Laboratories, Rockford, Ill.) on a Kodak 440CF image station. The band intensity was quantified using Kodak 1D image processing software. […]
Measurement of PKG Catalytic Activity Total PKG activity was determined using a non-radioactive immunoassay in cell lysates, according to the manufacturer's directions. […]

The test system of assay [2] is Pulmonary artery smooth muscle cells (PASMC). The assay is described as follows: PASMC phenotype markers (Western blot, immunocytochemistry). The format is cell-based, lamb. As to conditions: SIN-1 500 μM 48 h. The procedure: Cells were prepared as previously described (Sud, N., et al., American Journal of Physiology 293, L1444-1453 (2007); Sharma, S., et al., American Journal of Physiology 294, L46-56 (2008)). Briefly, the cellular protein extracts were prepared by homogenizing the cells in lysis buffer (50 mM Tris-HCl, pH 7.6, 0.5% Triton X-100, and 20% glycerol) containing Halt protease inhibitor cocktail (Pierce, Rockford, Ill.). The extracts were then clarified by centrifugation (20,000 g for 20 min at 4° C.). The supernatant fractions were assayed for protein concentration using the Bio-Rad DC Protein Assay (Bio-Rad Laboratories, Hercules, Calif.) and used for Western blot analysis. Similarly, peripheral lung tissue from the control lambs and the lambs with pulmonary hypertension secondary to increased pulmonary blood flow (shunt) was prepared as described earlier (Aggarwal, S., et al., Journal of Cellular Physiology (2011)). Cell extracts ([…]) were resolved using 4-20% Tris-SDS-Hepes PAGE, electrophoretically transferred to Immuno-Blot™ PVDF membrane (Bio-Rad Laboratories, Hercules, Calif.), and then blocked with 5% nonfat dry milk in Tris buffered saline. The membranes were then probed with antibodies against PKG-1α (1:500 dilution), anti-nitrotyrosine 247-PKG-1α (1:500), Calponin-1 (1:500 dilution), Vimentin (1:500 dilution), or MYH (1:500 dilution). Reactive bands were visualized using chemi-luminescence (Pierce Laboratories, Rockford, Ill.) on a Kodak 440CF image station. The band intensity was quantified using Kodak 1D image processing software. The protein expression was normalized by re-probing with anti β-actin (1:2000).
Semi-confluent PASMC grown on a coverslip in a 6-well plate were transfected with a mammalian expression plasmid containing either a wild-type (WT)- or Y247F-PKG-1α cDNA. After 20 h, the cells were serum starved (1% FBS) for 4 h then exposed or not to SIN-1 (500 μM) for 48 h. The cells were washed with PBS, methanol fixed (5 min), and permeabilized in 0.1% PBS-Tween (20 min). […] The cells were rinsed 3× with PBS, and the coverslips were mounted on the slides with ProLong Gold Antifade and analyzed with the use of a Nikon Eclipse TE 300 inverted fluorescent microscope with a 60× oil objective and a Hamamatsu digital camera.
To assess the effect of nitration on pulmonary arterial smooth muscle cell (PASMC) phenotype, PASMC were transiently transfected with expression plasmids containing WT-PKG-1α, Y247F-PKG-1α, or PDEST40 (as a control) for 20 h. Cells were then exposed or not to SIN-1 (500 μM, 48 h) and the effect on synthetic and contractile markers determined. The levels of myosin heavy chain (MYH, FIG. 18A), Calponin-1 (FIG. 18B), and Vimentin (FIG. 18C) were determined. […]
(Immunoblotting shows a protein as a band on a membrane.)

Take “3-morpholinosydnonimine N-ethylcarbamide [SIN-1]”: the “cGMP dependent increase in PKG activity, WT-PKG-1α cells” value in assay [1] is “attenuated”. Besides, in assay [2] (WT-PKG-1α expressing PASMC), the PCNA staining entry was “increased” and the SM-22α expression entry is “attenuated”. In assay [2] (WT-PKG-1α transfected PASMC), the “Expression of contractile markers MYH and Calponin-1” value is recorded as “decreased”; the “Expression of proliferative marker Vimentin” value is reported as “increased”.
